Experimental data as given in patent US9539315B2, “Methods, agents and peptides for inhibiting matrix metalloproteinase-2 signaling” (New York University, priority 2011, dated 2017).
Entries after “also recorded” stand apart in the source; their conditions may differ.

Key:
bone-marrow-derived DCs = test: Activation of bone-marrow-derived DCs from wild-type and TLR-deficient mice; type: cell-based, C57/BL6 mice
Procedure: Bone-marrow-derived DCs from wild-type, TLR2^−/−, TLR6^−/− or MyD88^−/− C57/BL6 mice (3 mice pooled/condition) were incubated overnight with 5 μg/ml mMMP-2 or mMMP-9 as well as TLR agonists for controls. TNFα (A) and IL-6 (B) were measured by cytometric bead array analysis. Results are represented as a mean of triplicates±s.d. Two-tailed Student's t-tests were used for specific pairwise comparisons between conditions. p values≦0.05 (*) were considered statistically significant. C) Murine OX40L expression was assessed 2 days later by immunostaining.
Bone-marrow-derived DCs (BM-DCs) were generated and cultured with murine MMP-2 or various controls. […] On the other hand, TLR2^−/− and MyD88^−/− BM-DCs were not activated by MMP-2 (n=3; p<0.02 compared to wild-type mice) (FIG. 9A-C). […] Therefore, MMP-2 induces DCs to produce inflammatory cytokines and to up-regulate OX40L in a TLR2/MyD88-dependent manner.

NF-κB pathway = test: p50 nuclear translocation / NF-κB activation in DCs (ELISA of cytosolic and nuclear fractions); type: cell-based, human; conditions: DCs exposed to MMP-2 (5 μm/ml) or zymosan (10 μm/ml); p50 by ELISA
Procedure: (§1) A) DCs were exposed to MMP-2 […] or zymosan […], a known activator of NF-κB that acts via TLR2, for the indicated time. Cytosolic and nuclear fractions were isolated and p50 contents were measured by ELISA. […] C) OX40L over-expression on DCs induced by MMP-2 is inhibited by an inhibitor of NEMO, the NEMO binding domain (NBD) peptide, but not by the corresponding negative control, a NBD mutant.
(§2) PBMCs were purified from healthy-(HD) or cord blood- (CB) donors and plated at 40×10^6 cells/10 mL/dish in complete IMDM with 5% PHS. Cells were allowed to adhere for 2 h at 37° C. Non-adherent cells were removed. The monocyte-enriched fraction was supplemented with 100 UI/mL rhGMCSF and 300 UI/mL rhIL-4 (R&D Systems) on days 0, 2 and 4. Immature DCs were harvested on day 5 and matured using poly(I:C) at 5 μg/mL/10^6 DCs (Amersham). Secretion of IL-12p70, TNFα, IL-1β, IL-6, IL-8 and IL-10 was assessed on both immature and mature DCs using the Human Inflammatory Cytokine Cytometric Bead Array (BD Pharmingen).
Activation of T cell clones (10,000 cells/100 μL/well), polyclonal T cell populations (100,000 cells/100 μL/well), and DCs (50,000 cells/100 μL/well) can be determined by ELISA. IFNγ (BioSource), TNFα (BioSource), IL-4 (BioSource), IFNβ (VeriKine; PBL interferon source) and MCP-3 (DuoSet; R&D Systems) contents in supernatants were measured according to the manufacturer's instructions. p50 was measured in cytosolic and nuclear fractions (fractions separated using the nuclear separation kit from Active motif) by ELISA (Active motif).

OX40L = OX40L expression on DCs (staining); type: cell-based, human; conditions: DCs exposed for 2 days, stained for OX40L
Procedure: as §1
(§3) A) DCs were exposed to various TLR agonists for 2 days before cells were stained for OX40L. […] B) TLR2-transfected and engineered HEK cells were incubated with MMP-2 (5 mg/ml) or various controls. All conditions were also tested in the presence of a blocking antibody for TLR2. TNFα was used to activate NF-κB in a TLR-independent manner. Twenty hours later, NF-κB activation was measured.
Antibody to OX40L (11C3.1) was from Biolegend. Blocking antibodies to TLR-2 and TLR-6 were from Invivogen. Antibodies to GATA-3, IL-4 (8D4-8), IL-5 (JES1-39D10), IL-13 (JES10-5A2), TNFα (MAb11), IFNγ (25723.11), perforin (δG9), GranzymeB (GB11), CD40 (5C3), CD80 (L307.4), CD83 (HB15e), CD86 (IT2.2), HLA-DR (TU36), fluorescein isothiocyanate-conjugated antibodies to CD45RA (HI100) and CD45RO (UCHL1), and antibody to CD4 (RPA-T4) were purchased from BD Biosciences Pharmingen. Alexa fluor 488-conjugated antibody to IL-17 (eBio64DEC17), phycoerythrine-conjugated antibody to T-bet (4B10).
as §2

human TLR-2 = molecular target: T1, human TLR-2 (Homo sapiens, UniProt O60603); test: HEK-Blue-hTLR2 NF-κB SEAP reporter assay; type: cell-based; conditions: MMP-2 5 mg/ml; twenty hours; with/without TLR2 blocking antibody
T1 construct: host or cells: HEK293 (HEK-Blue-hTLR2 cells)
Procedure: as §3
TLR2-transfected and engineered HEK cells were incubated with MMP-2 (5 mg/ml), TLR2 agonists, recombinant PEX and 3 pools of overlapping 20-mers covering MMP-2. OLP1: mix of 22 overlapping peptides covering MMP-2 from amino-acid 1 to 220; OLP2: mix of 22 overlapping peptides covering MMP-2 from amino-acid 210 to 440; OLP3: mix of 22 overlapping peptides covering MMP-2 from amino-acid 450 to 660. Twenty hours later, NF-κB activation was measured. Neither PEX nor the peptides triggered NF-κB signaling.
TLR-2-transfected (stably) HEK-Blue™ Cells represent a very efficient high throughput reagent for screening due to an easy read-out. […] Levels of SEAP can be readily determined with QUANTI-Blue™, a detection medium that turns purple/blue in the presence of alkaline phosphatase. […] Inhibition of NF-κB activation by any agents/molecules can be assessed and confirmed in DCs (which endogenously express TLR2 or are engineered to express exogenous TLR2) in order to corroborate the initial screening results in a native or more natural context. […] TLR-2-expressing cells, such as those described herein, can be incubated with agents/molecules and molecular interactions assessed using methods, such as, e.g., co-immunoprecipitation of MMP-2 and TLR-2 from the cell lysates. […] Additional methods can be used to evaluate if MMP-2 and TLR-2 interact directly, including other affinity-based methods (e.g., affinity chromatography or panning), competitive inhibition assays, and various visualization techniques, such as fluorescence resonance energy transfer (FRET) and others which are known in the art. […]

T1 sequence (O60603 21-784): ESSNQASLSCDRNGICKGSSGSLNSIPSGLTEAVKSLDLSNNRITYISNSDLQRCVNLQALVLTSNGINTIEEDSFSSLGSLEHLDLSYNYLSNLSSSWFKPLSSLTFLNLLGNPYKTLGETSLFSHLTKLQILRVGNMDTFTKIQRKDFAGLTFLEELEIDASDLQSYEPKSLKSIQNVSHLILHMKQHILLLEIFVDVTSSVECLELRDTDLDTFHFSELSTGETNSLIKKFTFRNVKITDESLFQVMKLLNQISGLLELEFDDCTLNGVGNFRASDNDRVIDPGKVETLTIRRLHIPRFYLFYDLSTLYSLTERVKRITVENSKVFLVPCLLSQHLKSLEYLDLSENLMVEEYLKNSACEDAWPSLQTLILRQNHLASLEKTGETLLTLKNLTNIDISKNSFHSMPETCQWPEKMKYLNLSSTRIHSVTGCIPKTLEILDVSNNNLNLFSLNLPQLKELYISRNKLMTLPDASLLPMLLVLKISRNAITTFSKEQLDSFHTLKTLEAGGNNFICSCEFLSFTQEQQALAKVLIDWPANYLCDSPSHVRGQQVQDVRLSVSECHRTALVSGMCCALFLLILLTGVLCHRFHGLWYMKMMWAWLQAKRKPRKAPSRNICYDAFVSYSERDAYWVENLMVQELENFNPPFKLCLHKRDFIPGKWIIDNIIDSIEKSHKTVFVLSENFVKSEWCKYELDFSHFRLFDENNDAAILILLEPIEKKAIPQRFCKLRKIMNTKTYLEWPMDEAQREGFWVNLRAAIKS

Molecule | activation of bone-marrow-derived DCs (bone-marrow-derived DCs; FIG. 9 summary) | activation of TLR2−/− and MyD88−/− BM-DCs (bone-marrow-derived DCs; TLR2−/− and MyD88−/− BM-DCs, n=3) | inflammatory cytokine secretion (TNFα, IL-6) by BM-DCs (bone-marrow-derived DCs; wild-type and TLR6−/− BM-DCs, 5 μg/ml overnight, active or inactive) | OX40L up-regulation on BM-DCs (bone-marrow-derived DCs; wild-type and TLR6−/− BM-DCs, 2 days) | p50 translocation in the nucleus (NF-κB pathway) | OX40L expression on DCs (OX40L) | NF-κB activation in TLR2-transfected HEK cells (human TLR-2)
murine MMP-2: murine MMP-2 protein, active or inactive | activates bone-marrow-derived DCs in a TLR2- and MyD88-dependent manner | not activated | secreted inflammatory cytokines | up-regulated OX40L |  |  | 
zymosan [reference compound] |  |  |  |  | induce p50 translocation in the nucleus after 30 min | induce OX40L on DCs | activate NF-κB in a TLR2-dependent manner
PEX: last third of MMP-2, amino acids 445-635 of SEQ ID NO: 1; recombinant (protein, listed as Homo sapiens) YGASPDIDLGTGPTPTLGPVTPEICKQDIVFDGIAQIRGEIFFFKDRFIWRTVTPRDKPMGPLLVATFWPELPEKIDAVYEAPQEEKAVFFAGNEYWIYSASTLERGYPKPLTSLGLPPDVQRVDAAFNWSKNKKTYIFAGDKFWRYNEVKKKMDPGFPKLIADAWNAIPDNLDAVVDLQGGGHSYFFKGA |  |  |  |  |  |  | did not trigger TLR-2 activation; also recorded: do not trigger TLR2
